Reference: PubChem BioAssay AID1963848 (Molecular Pharmacology Branch, DTP, NCI, 2024)
pIC50: −log10 of the molar value. “And” between values parts separate entries of the source, which are not always exact repeats. Identical values can stand only once.

Tested on: 379773-124-R-J2-PDC spheroid viability
Test: Anticancer human tumor 379773-124-R-J2-PDC patient-derived endometrial carcinoma cell line growth inhibition [POLQ]
Settings: spheroids with HUVEC and MSC; for viability, T/C: stronger effect = lower value
Description: Multicellular complex tumor spheroid response to Polymerase (POL) inhibitors (novobiocin, ART-558, RP6685) in combination with a variety of drugs and investigational agents in selected tumor cell lines
The POL inhibitors (novobiocin, ART-558, and RP6685) were evaluated both individually and in combination with standard of care and investigational anticancer small molecules within a complex spheroid model of solid tumors. . Complex spheroids include a stromal component modeled by human endothelial cells (HUVEC) and fibroblasts modeled by human mesenchymal stem cells (MSCs). The concentration ranges selected for each drug and investigational agent were based upon clinically achievable concentrations if the clinical Cmax of the agent was known.
Compounds. The drugs and investigational agents: novobiocin (NSC847541), ART-558 (NSC835418), RP-6685 (NSC848927), peposertib (NSC802822), ceralasertib (NSC780249), elimusertib (NSC800525), camonsertib (NSC841442), AZD-1390 (NSC803789), olaparib (NSC753686), talazoparib (NSC767125), rucaparib (NSC756644), sotorasib (NSC818433), MRTX-1133 (NSC836407), SN-38 (NSC673596), topotecan (NSC609699), epotoside (NSC141540), doxorubicin (NSC123127), gemcitabine (NSC613327), 5-fluorouracil (NSC19893), paclitaxel (NSC125973), vemurafenib (NSC761431), MSA-2 (NSC828583), SN-011 (NSC837082), adavosertib (NSC754352), prexasertib (NSC758257), carboplatin (NSC241240) and oxaliplatin (NSC266046), were obtained from the National Cancer Institute (NCI) Developmental Therapeutics Program Chemical Repository (21). The FDA-approved anticancer drug set is available from the Developmental Therapeutics Program at https://dtp.cancer.gov/organization/dscb/obtaining/. […] The stock solutions were prepared in dimethyl sulfoxide (DMSO, Sigma-Aldrich, St. Louis, MO, cat. D2650), except for the platinum compounds which were prepared in saline (Quality Biological, Gaithersburg, MD, cat. 114-055-101), at 800-fold the tested concentration and stored at -70 degrees C prior to their use. All drugs and investigational agents were tested over a range starting from a high concentration at or near the clinical Cmax and decreasing in half-log increments. If the clinical Cmax for an agent had not been determined, the highest concentration tested was 10 microM, except for SN-38, which was tested at a high concentration of 1 microM.
Cell Culture. All cells were maintained in an incubator at 37 degrees C and 5% CO2 with 95% humidity. The PDC lines were cultured according to standard operating procedures established by the NCI PDMR (https://pdmr.cancer.gov). Table 3 of the manuscript, lists the cell lines along with the number of the three cell types plated to form the mct-spheroids and media for tumor cell growth. After thawing, all PDC lines, except 997537-175-T-J1-PDC and 415267-285-R-J2-PDC, were cultured in Matrigel-coated flasks prepared with a working solution of 1X Ham's F-12 nutrient mix, without supplementation (Thermo Fisher Scientific, cat. 11765054), 100 U/mL penicillin-streptomycin (Thermo Fisher Scientific, cat. 15140122), and 2.5% Matrigel (Corning Inc., Corning, NY, cat. 354248) for the first three passages. The two PDC lines 997537-175-T-J1-PDC and 415267-285-R-J2-PDC were cultured on uncoated flasks. The 857933-349-R-J2-PDC line was cultured in 6C/Colon 1B media containing advanced DMEM/F-12 (Thermo Fisher Scientific, cat. 12634028), 10 mM HEPES (Thermo Fisher Scientific, cat. 15630080), 1X GlutaMAX supplement (Thermo Fisher Scientific, cat. 35050061), 0.1 mg/mL primocin (InvivoGen, San Diego, CA, cat. ant-pm-2), 10% defined fetal bovine serum, heat inactivated (HyClone Laboratories Inc., Logan, UT, cat. SH30070.03HI), 50% L-WRN conditioned media (ATCC, cat. CRL-3276), 1.25 mM N-Acetyl-L-cysteine (Sigma-Aldrich, cat. A9165), 10 mM nicotinamide (Sigma-Aldrich, cat. N0636), 1X B-27 supplement (Thermo Fisher Scientific, cat. 17504044), 1X N-2 supplement (Thermo Fisher Scientific, cat. […]

[1] = curve of first compound, second compound 0.0316 µM
[2] = curve of first compound, second compound 0.1 µM
[3] = curve of first compound, second compound 0.316 µM
[4] = curve of first compound, second compound 1 µM
[5] = curve of first compound, second compound 3.16 µM
[6] = curve of first compound, second compound 10 µM
[7] = second compound 0.0316 µM, first compound 0.0316 µM
[8] = second compound 0.0316 µM, first compound 0.1 µM
[9] = second compound 0.0316 µM, first compound 0.316 µM
[10] = second compound 0.0316 µM, first compound 1 µM
[11] = second compound 0.0316 µM, first compound 3.16 µM
[12] = second compound 0.0316 µM, first compound 10 µM
[13] = second compound 0.1 µM, first compound 0.0316 µM
[14] = second compound 0.1 µM, first compound 0.1 µM
[15] = second compound 0.1 µM, first compound 0.316 µM
[16] = second compound 0.1 µM, first compound 1 µM
[17] = second compound 0.1 µM, first compound 3.16 µM
[18] = second compound 0.1 µM, first compound 10 µM
[19] = second compound 0.316 µM, first compound 0.0316 µM
[20] = second compound 0.316 µM, first compound 0.1 µM
[21] = second compound 0.316 µM, first compound 0.316 µM
[22] = second compound 0.316 µM, first compound 1 µM
[23] = second compound 0.316 µM, first compound 3.16 µM
[24] = second compound 0.316 µM, first compound 10 µM
[25] = second compound 1 µM, first compound 0.0316 µM
[26] = second compound 1 µM, first compound 0.1 µM
[27] = second compound 1 µM, first compound 0.316 µM
[28] = second compound 1 µM, first compound 1 µM
[29] = second compound 1 µM, first compound 3.16 µM
[30] = second compound 1 µM, first compound 10 µM
[31] = second compound 3.16 µM, first compound 0.0316 µM
[32] = second compound 3.16 µM, first compound 0.1 µM
[33] = second compound 3.16 µM, first compound 0.316 µM
[34] = second compound 3.16 µM, first compound 1 µM
[35] = second compound 3.16 µM, first compound 3.16 µM
[36] = second compound 3.16 µM, first compound 10 µM
[37] = second compound 10 µM, first compound 0.0316 µM
[38] = second compound 10 µM, first compound 0.1 µM
[39] = second compound 10 µM, first compound 0.316 µM
[40] = second compound 10 µM, first compound 1 µM
[41] = second compound 10 µM, first compound 3.16 µM
[42] = second compound 10 µM, first compound 10 µM
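Note: spheroids exposed to drugs for seven days before readout.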
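Throughout, for viability, T/C: percent viability relative to DMSO vehicle control taken as 100%.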

O=c1[nH]cc(F)c(=O)[nH]1 + Cc1cccc(N(C)C(=O)C2C(O)CCN2c2nc(C)cc(C(F)(F)F)c2C#N)c1
pIC50 [1]: < 5.00 | pIC50 [2]: < 5.00 | pIC50 [3]: < 5.00 | pIC50 [4]: < 5.00 | pIC50 [5]: < 5.00 | pIC50 [6]: < 5.00 | viability, T/C [7]: 95% | viability, T/C [8]: 88.5% | viability, T/C [9]: 88.2% | viability, T/C [10]: 77.2% | viability, T/C [11]: 76.6% | viability, T/C [12]: 61.5% | viability, T/C [13]: 95.5% | viability, T/C [14]: 90.7% | viability, T/C [15]: 93.4% | viability, T/C [16]: 85.8% | viability, T/C [17]: 82% | viability, T/C [18]: 58.7% | viability, T/C [19]: 91.8% | viability, T/C [20]: 88.7% | viability, T/C [21]: 94% | viability, T/C [22]: 74.5% | viability, T/C [23]: 82% | viability, T/C [24]: 68.8% | viability, T/C [25]: 92.2% | viability, T/C [26]: 90.4% | viability, T/C [27]: 82.2% | viability, T/C [28]: 86.3% | viability, T/C [29]: 74.2% | viability, T/C [30]: 67.7% | viability, T/C [31]: 84.9% | viability, T/C [32]: 97.8% | viability, T/C [33]: 79.8% | viability, T/C [34]: 76.5% | viability, T/C [35]: 77.3% | viability, T/C [36]: 52.9% | viability, T/C [37]: 78.7% | viability, T/C [38]: 96.6% | viability, T/C [39]: 96.4% | viability, T/C [40]: 83% | viability, T/C [41]: 75% | viability, T/C [42]: 56.2%

CNCc1ccc(-c2[nH]c3cc(F)cc4c3c2CCNC4=O)cc1
viability, T/C (compound 0.0316 µM): 79.5% and 90.1% and 98.3% | viability, T/C (compound 0.1 µM): 85.4% and 95.9% and 92.6% | viability, T/C (compound 0.316 µM): 76.9% and 93.3% and 85.4% | viability, T/C (compound 1 µM): 77.7% and 96% and 82.6% | viability, T/C (compound 3.16 µM): 71.9% and 100% and 80.1% | viability, T/C (compound 10 µM): 56.2% and 82.1% and 66.5% | pIC50 (curve of compound): < 5.00

CNCc1ccc(-c2[nH]c3cc(F)cc4c3c2CCNC4=O)cc1 + Cc1cccc(N(C)C(=O)C2C(O)CCN2c2nc(C)cc(C(F)(F)F)c2C#N)c1
pIC50 [1]: < 5.00 | pIC50 [2]: < 5.00 | pIC50 [3]: < 5.00 | pIC50 [4]: < 5.00 | pIC50 [5]: < 5.00 | pIC50 [6]: < 5.00 | viability, T/C [7]: 89.5% | viability, T/C [8]: 74.2% | viability, T/C [9]: 88.5% | viability, T/C [10]: 83.2% | viability, T/C [11]: 72.7% | viability, T/C [12]: 58.3% | viability, T/C [13]: 90.4% | viability, T/C [14]: 85.8% | viability, T/C [15]: 75.2% | viability, T/C [16]: 79.5% | viability, T/C [17]: 80.4% | viability, T/C [18]: 66.9% | viability, T/C [19]: 93.3% | viability, T/C [20]: 77.5% | viability, T/C [21]: 83.1% | viability, T/C [22]: 82.9% | viability, T/C [23]: 75.8% | viability, T/C [24]: 57.6% | viability, T/C [25]: 78.2% | viability, T/C [26]: 79.7% | viability, T/C [27]: 87.1% | viability, T/C [28]: 73.5% | viability, T/C [29]: 73.8% | viability, T/C [30]: 60.3% | viability, T/C [31]: 86.5% | viability, T/C [32]: 73.6% | viability, T/C [33]: 79.8% | viability, T/C [34]: 83.1% | viability, T/C [35]: 82% | viability, T/C [36]: 54.8% | viability, T/C [37]: 74.8% | viability, T/C [38]: 70.3% | viability, T/C [39]: 72.7% | viability, T/C [40]: 69.6% | viability, T/C [41]: 77.3% | viability, T/C [42]: 61.1%

COc1cccc2c1C(=O)c1c(O)c3c(c(O)c1C2=O)CC(O)(C(=O)CO)CC3OC1CC(N)C(O)C(C)O1 (stereo not drawn)
viability, T/C (compound 0.0316 µM): 78.1% and 95.3% and 81.8% | viability, T/C (compound 0.1 µM): 25% and 40.3% and 29.4% | viability, T/C (compound 0.316 µM): 7.16% and 12.4% and 5.32% | viability, T/C (compound 1 µM): 7.82% and 10.6% and 5.98% | viability, T/C (compound 3.16 µM): 1.99% and 2.49% and 0.93% | viability, T/C (compound 10 µM): 0.82% and 0.3% and 0.62% | pIC50 (curve of compound): 7.24 and 7.09 and 7.20
